Assay results from US9458179B2, “Quinuclidine, 1-azabicyclo[2.2.1]heptane, 1-azabicyclo [3.2.1]octane, and 1-azabicyclo[3.2.2]nonane compounds as alpha-7 nicotinic acetylcholine receptor ligands” (BRISTOL-MYERS SQUIBB COMPANY, priority 2012, dated 2016).

Target: T1, α-7 nicotinic ACh receptor ion channel (Rattus norvegicus, UniProt Q05941)
T1 construct: expressed in transfected cells
Assay: Ca2+-sensitive fluorescence-based FLIPR assay of α7 nicotinic receptor channel function (agonist activity)
Format: cell-based
Conditions: FLIPR α7-HI (EC50, nM), HEK 293 cells, Ca2+ flux
Procedure: II) A Ca^2+-Sensitive, Fluorescence-Based Assay α-7 for Nicotinic Acetylcholine Receptor Channel Function in Mammalian Cells (“FLIPR”).
Lead compounds are evaluated for agonist activity at α-7, α3β4, α4αβ2, and α1β1δ1ε sub-types of nicotinic ACh receptor ion channels expressed in mammalian HEK 293 cells. Agonist potency and efficacy values are determined from kinetic fluorescence Ca^2+ influx measurements made using a 384 well FLIPR (Fluorescence Image Plate Reader). […] In this assay, channel expressing HEK cell lines seeded in 384 well assay plates are loaded with a membrane permeant fluorescent Ca^2+ indicator dye, whose 510 nm green emission signal increases in response to elevation of intracellular Ca^2+ concentration. The basal fluorescence from the cells is monitored in real time, followed by the acute addition of test compounds.
Reagents: The acetomethoxy (AM) ester of the Ca^2+ indicator dye Fluo-4 was obtained from InVitrogen, (Carlsbad, Calif.). Acetylcholine and all buffer constituents were purchased from Sigma Chemical Company, St. Louis, Mo. G418 and Minimal Essential Medium were purchased from InVitrogen Life Technologies, Carlsbad, Calif. Fetal bovine serum was purchased from (InVitrogen, Carlsbad, Calif.).
HEK-293 cells were grown in Minimal Essential Medium containing 10% (v/v) fetal bovine serum at 37° C. in a 5% CO2 incubator. HEK-293 cells stably expressing the ion channels were grown in the same medium with the addition of 500 μg/ml G418.
HEK-293 cells expressing the ion channels of interest were plated in 384 well, black-walled, clear-bottomed, poly-D-lysine coated plates at a density of ˜20,000 cells/well in 20 μl of Minimal Essential Medium containing 10% (v/v) fetal bovine serum and incubated for 2 days at 29° C. in a 5% CO2 incubator. Prior to assay, cells were loaded with the Fluo-4 AM ester. […] Dye loading was allowed to proceed for 90 minutes at room temperature at which time the dye loading solution was removed and replaced with 40 μl/well of Hanks buffer. Cells loaded with dye were loaded onto a FLIPR384 (Molecular Devices, Sunnyvale, Calif.). […] Emission was filtered using a 540+/−30 nm bandpass filter. For evaluation of the effects of test compounds using the Ca^2+ flux assay, compounds to be tested were provided in assay ready plates. For nicotinic receptor ion channel expressing cells, the assay was initiated by the addition of 20 μl/well of Hanks buffer containing test compounds. For all assays, data were collected at 1 Hz for 10 seconds (baseline), at which time the compound containing stimulus buffers are added, and further measurements collected at 0.33 Hz for 3 min.
The statistical robustness of the nicotinic receptor Ca^2+ flux assays is determined from blanks and totals wells. […] The raw fluorescence units data files generated on the FLIPR plate reader are automatically exported and processed by in-house data analysis tools. The reduced percent activation data for each concentration of test compound are fit using MathIQ fitting engine (ID Business Solutions Limited, Surrey, UK). Data were analyzed by fitting maximum amplitudes of change in fluorescence, for Ca^2+ flux for a given condition of test compound. […] Test compound efficacy values (Ymax values) are expressed relative to a maximal response to acetylcholine in the total wells.

T1 sequence (Q05941 23-502): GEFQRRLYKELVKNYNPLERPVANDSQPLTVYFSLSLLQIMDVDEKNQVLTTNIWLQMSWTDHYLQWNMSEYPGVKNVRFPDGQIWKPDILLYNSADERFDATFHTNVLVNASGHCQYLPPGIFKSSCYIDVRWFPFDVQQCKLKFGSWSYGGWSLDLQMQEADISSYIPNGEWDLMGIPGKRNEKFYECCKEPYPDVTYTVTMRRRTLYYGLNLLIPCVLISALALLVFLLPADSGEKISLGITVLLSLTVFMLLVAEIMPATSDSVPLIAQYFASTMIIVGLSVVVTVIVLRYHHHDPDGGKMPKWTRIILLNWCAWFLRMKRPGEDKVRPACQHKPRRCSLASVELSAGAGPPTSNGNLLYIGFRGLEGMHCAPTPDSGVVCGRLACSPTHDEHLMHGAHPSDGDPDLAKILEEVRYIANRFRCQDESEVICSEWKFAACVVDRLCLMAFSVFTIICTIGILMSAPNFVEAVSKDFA

| Compound | EC50 [nM] |
| --- | --- |
| c1csc(NC2=NCC3(CN4CCC3CC4)N2)n1 (stereo not shown) [Example 9] | 1060 |
| CN1C(Nc2cc3ccccc3cn2)=NCC12CN1CCC2CC1 (stereo not shown) [Example 15] | 787 |
| Clc1cnc(NC2=NCC3(CN4CCC3CC4)N2)nc1 (stereo not shown) [Example 17] | 286 |
| CN1C(Nc2ccc3ccccc3n2)=NCC12CN1CCC2CC1 (stereo not shown) [Example 40] | 942 |
| Clc1ccc2nc(NC3=NCC4(CN5CCC4CC5)N3)sc2c1 (stereo not shown) [Example 52] | 154 |

Same assay, conditions: FLIPR α7-HI (EC50, nM), HEK 293 cells, Ca2+ flux; Table 1, activity class

| Compound | EC50 [nM] |
| --- | --- |
| c1ccc2sc(NC3=NCC4(CN5CCC4CC5)N3)nc2c1 (single isomer, unassigned) [Example 11a] | < 100 |
| c1ccc2sc(NC3=NCC4(CN5CCC4CC5)N3)nc2c1 (single isomer, unassigned) [Example 11b] | 1000 to 100000 |
| Clc1ccc2nc(NC3=NCC4(CN5CCC4CC5)N3)sc2n1 (single isomer, unassigned) [Example 28a] | < 100 |
| Clc1ccc2nc(NC3=NCC4(CN5CCC4CC5)N3)sc2n1 (single isomer, unassigned) [Example 28b] | 1000 to 100000 |
| COc1ccc2nc(NC3=NCC4(CN5CCC4CC5)N3)sc2c1 (stereo not shown) [Example 1, N-(6-Methoxy-1,3-benzothiazol-2-yl)-1′,5′-dihydrospiro[4-azabicyclo[2.2.2]octane-2,4′-imidazol]-2′-amine] | 100 to 1000 |
| COc1ccc2nc(NC3=NCC4(CN5CCC4CC5)N3C)sc2c1 (stereo not shown) [Example 2] | 100 to 1000 |
| CCN1C(Nc2nc3ccc(OC)cc3s2)=NCC12CN1CCC2CC1 (stereo not shown) [Example 3] | 100 to 1000 |
| CN1C(Nc2ncc(-c3ccccc3)s2)=NCC12CN1CCC2CC1 (stereo not shown) [Example 5] | 1000 to 100000 |
| CCN1C(Nc2ncc(-c3ccccc3)s2)=NCC12CN1CCC2CC1 (stereo not shown) [Example 6] | 1000 to 100000 |
| Clc1cnc(NC2=NCC3(CN4CCC3CC4)N2)cn1 (stereo not shown) [Example 7, N-(5-Chloro-2-pyrazinyl)-1′,5′-dihydrospiro[4-azabicyclo[2.2.2]octane-2,4′-imidazol]-2′-amine] | 100 to 1000 |
| Cc1ccc2nc(NC3=NCC4(CN5CCC4CC5)N3)oc2c1 (stereo not shown) [Example 8, N-(6-Methyl-1,3-benzoxazol-2-yl)-1′,5′-dihydrospiro[4-azabicyclo[2.2.2]octane-2,4′-imidazol]-2′-amine] | < 100 |
| Cc1ccc2nc(NC3=NCC4(CN5CCC4CC5)N3)oc2c1 (stereo not shown) [Example 8a] | < 100 |
| Cc1ccc2nc(NC3=NCC4(CN5CCC4CC5)N3)oc2c1 (stereo not shown) [Example 8b] | 1000 to 100000 |
| c1csc(NC2=NCC3(CN4CCC3CC4)N2)n1 (stereo not shown) [Example 9] | 1000 to 100000 |
| CN1C(Nc2nccs2)=NCC12CN1CCC2CC1 (stereo not shown) [Example 10] | 1000 to 100000 |
| c1ccc2sc(NC3=NCC4(CN5CCC4CC5)N3)nc2c1 (stereo not shown) [Example 11] | < 100 |
| CN1C(Nc2nc3ccccc3s2)=NCC12CN1CCC2CC1 (stereo not shown) [Example 12] | 100 to 1000 |
| Clc1ccc(NC2=NCC3(CN4CCC3CC4)N2)nc1 (stereo not shown) [Example 13] | 1000 to 100000 |
| CN1C(Nc2ccc(Cl)cn2)=NCC12CN1CCC2CC1 (stereo not shown) [Example 14] | 1000 to 100000 |

| Compound | EC50 [nM] |
| --- | --- |
| CN1C(Nc2cc3ccccc3cn2)=NCC12CN1CCC2CC1 (stereo not shown) [Example 15] | 100 to 1000 |
| Clc1cnc(NC2=NCC3(CN4CCC3CC4)N2)nc1 (stereo not shown) [Example 17] | 100 to 1000 |
| CN1C(Nc2ncc(Cl)cn2)=NCC12CN1CCC2CC1 (stereo not shown) [Example 18] | 100 to 1000 |
| COc1ncc2nc(NC3=NCC4(CN5CCC4CC5)N3)sc2n1 (stereo not shown) [Example 19, N-(5-Methoxy[1,3]thiazolo[5,4-d]pyrimidin-2-yl)-1′,5′-dihydrospiro[4-azabicyclo[2.2.2]octane-2,4′-imidazol]-2′-amine] | 1000 to 100000 |
| COc1cc(NC2=NCC3(CN4CCC3CC4)N2C)ncn1 (stereo not shown) [Example 21] | 100 to 1000 |
| Cc1nnc(NC2=NCC3(CN4CCC3CC4)N2C)nc1C (stereo not shown) [Example 22] | > 1e+06 |
| c1ccc2c(NC3=NCC4(CN5CCC4CC5)N3)ncnc2c1 (stereo not shown) [Example 23] | 100 to 1000 |
| CN1C(Nc2ncnc3ccccc23)=NCC12CN1CCC2CC1 (stereo not shown) [Example 24] | 1000 to 100000 |
| Clc1ccc(NC2=NCC3(CN4CCC3CC4)N2)nn1 (stereo not shown) [Example 25] | 1000 to 100000 |
| CN1C(Nc2ccc(Cl)nn2)=NCC12CN1CCC2CC1 (stereo not shown) [Example 26] | 100 to 1000 |
| CN1C(Nc2ncc3ccccc3n2)=NCC12CN1CCC2CC1 (stereo not shown) [Example 27] | 1000 to 100000 |
| Clc1ccc2nc(NC3=NCC4(CN5CCC4CC5)N3)sc2n1 (stereo not shown) [Example 28] | < 100 |
| CN1C(Nc2nc3ccc(Cl)nc3s2)=NCC12CN1CCC2CC1 (stereo not shown) [Example 29] | 100 to 1000 |
| c1cnc2sc(NC3=NCC4(CN5CCC4CC5)N3)nc2n1 (stereo not shown) [Example 32, N-[1,3]Thiazolo[4,5-b]pyrazin-2-yl-1′,5′-dihydrospiro[4-azabicyclo[2.2.2]octane-2,4′-imidazol]-2′-amine] | 100 to 1000 |
| c1ccn2nc(NC3=NCC4(CN5CCC4CC5)N3)nc2c1 (stereo not shown) [Example 34] | 100 to 1000 |
| CN1C(Nc2nc3ccccn3n2)=NCC12CN1CCC2CC1 (stereo not shown) [Example 35] | 1000 to 100000 |
| c1ccc2nc(NC3=NCC4(CN5CCC4CC5)N3)cnc2c1 (stereo not shown) [Example 36] | 100 to 1000 |
| c1ccn2cc(NC3=NCC4(CN5CCC4CC5)N3)nc2c1 (stereo not shown) [Example 37] | 1000 to 100000 |
| COc1ncnc2sc(NC3=NCC4(CN5CCC4CC5)N3)nc12 (stereo not shown) [Example 38] | 1000 to 100000 |

| Compound | EC50 [nM] |
| --- | --- |
| c1ccc(COc2ccc3nc(NC4=NC5(CN4)CN4CCC5CC4)sc3n2)cc1 (stereo not shown) [Example 39, N-(5-(benzyloxy)[1,3]thiazolo[5,4-b]pyridin-2-yl)-1′,5′-dihydrospiro[4-azabicyclo[2.2.2]octane-2,4′-imidazol]-2′-amine] | > 1e+06 |
| CN1C(Nc2ccc3ccccc3n2)=NCC12CN1CCC2CC1 (stereo not shown) [Example 40] | 100 to 1000 |
| Cc1cnc2nc(NC3=NCC4(CN5CCC4CC5)N3)sc2n1 (stereo not shown) [Example 41] | 1000 to 100000 |
| O=c1ccc2nc(NC3=NCC4(CN5CCC4CC5)N3)sc2[nH]1 (stereo not shown) [Example 42, 2-(1′,5′-Dihydrospiro[4-azabicyclo[2.2.2]octane-2,4′-imidazol]-2′-ylamino)[1,3]thiazolo[5,4-b]pyridin-5 (4H)-one] | 100 to 1000 |
| Cc1nc(C)nc(NC2=NCC3(CN4CCC3CC4)N2)n1 (stereo not shown) [Example 43] | 1000 to 100000 |
| Fc1ccc2nc(NC3=NCC4(CN5CCC4CC5)N3)sc2n1 (stereo not shown) [Example 44, N-(5-Fluoro[1,3]thiazolo[5,4-b]pyridin-2-yl)-1′,5′-dihydrospiro[4-azabicyclo[2.2.2]octane-2,4′-imidazol]-2′-amine] | 100 to 1000 |
| CN1C(Nc2nc3ccc(F)nc3s2)=NCC12CN1CCC2CC1 (stereo not shown) [Example 45] | 1000 to 100000 |
| COc1ccc2nc(NC3=NCC4(CN5CCC4CC5)N3)sc2n1 (stereo not shown) [Example 46] | 100 to 1000 |
| COc1ccc2nc(NC3=NCC4(CN5CCC4CC5)N3C)sc2n1 (stereo not shown) [Example 47] | 100 to 1000 |
| CN(C)c1ccc2nc(NC3=NCC4(CN5CCC4CC5)N3)sc2n1 (stereo not shown) [Example 48, N˜2˜-(1′,5′-Dihydrospiro[4-azabicyclo[2.2.2]octane-2,4′-imidazol]-2′-yl)-N˜5˜,N˜5˜-dimethyl[1,3]thiazolo[5,4-b]pyridine-2,5-diamine] | 1000 to 100000 |
| Brc1ccc2nc(NC3=NCC4(CN5CCC4CC5)N3)sc2n1 (stereo not shown) [Example 49] | 100 to 1000 |
| CN1C(Nc2nc3ccc(Br)nc3s2)=NCC12CN1CCC2CC1 (stereo not shown) [Example 50] | 1000 to 100000 |
| FC(F)(F)c1ccc2c(NC3=NCC4(CN5CCC4CC5)N3)n[nH]c2c1 (stereo not shown) [Example 51] | > 1e+06 |
| Clc1ccc2nc(NC3=NCC4(CN5CCC4CC5)N3)sc2c1 (stereo not shown) [Example 52] | 100 to 1000 |
| Clc1cccc2nc(NC3=NCC4(CN5CCC4CC5)N3)sc12 (stereo not shown) [Example 53] | 100 to 1000 |
| COc1ccc2sc(NC3=NCC4(CN5CCC4CC5)N3)nc2c1 (stereo not shown) [Example 54] | 100 to 1000 |
| Fc1cccc2sc(NC3=NCC4(CN5CCC4CC5)N3)nc12 (stereo not shown) [Example 55] | < 100 |
| c1cnc2sc(NC3=NCC4(CN5CCC4CC5)N3)nc2c1 (stereo not shown) [Example 56] | < 100 |

Same assay, conditions: FLIPR α7-HI (EC50, nM), HEK 293 cells, Ca2+ flux; Table 3, activity class

| Compound | EC50 [nM] |
| --- | --- |
| c1ccc2cc(NC3=NCCC4(CN5CCC4CC5)O3)ncc2c1 (single isomer, unassigned) [Example 76a] | 100 to 1000 |
| c1ccc2cc(NC3=NCCC4(CN5CCC4CC5)O3)ncc2c1 (single isomer, unassigned) [Example 76b] | > 1e+06 |

Same assay, conditions: HEK 293 cells, Ca2+ flux; read-out: FLIPR α7-HI (EC50)

| Compound | EC50 [nM] |
| --- | --- |
| c1ccc2[nH]c(NC3=NCC4(CN5CCC4CC5)N3)nc2c1 (stereo not shown) [Example 16] | 1290 |
